Data from US20180177729A1, “G PROTEIN-COUPLED RECEPTORS INCORPORATED INTO REHYDRATED POLYMER VESICLES RETAIN FUNCTIONALITY” (UNIVERSITY OF SOUTHERN CALIFORNIA, priority 2016, published 2018).

Target: T1, human serotonin 5-HT1A receptor (5-HT1AR) (Homo sapiens, UniProt P08908)
T1 construct: purchased Perkin Elmer
T1 sequence (P08908 1-422): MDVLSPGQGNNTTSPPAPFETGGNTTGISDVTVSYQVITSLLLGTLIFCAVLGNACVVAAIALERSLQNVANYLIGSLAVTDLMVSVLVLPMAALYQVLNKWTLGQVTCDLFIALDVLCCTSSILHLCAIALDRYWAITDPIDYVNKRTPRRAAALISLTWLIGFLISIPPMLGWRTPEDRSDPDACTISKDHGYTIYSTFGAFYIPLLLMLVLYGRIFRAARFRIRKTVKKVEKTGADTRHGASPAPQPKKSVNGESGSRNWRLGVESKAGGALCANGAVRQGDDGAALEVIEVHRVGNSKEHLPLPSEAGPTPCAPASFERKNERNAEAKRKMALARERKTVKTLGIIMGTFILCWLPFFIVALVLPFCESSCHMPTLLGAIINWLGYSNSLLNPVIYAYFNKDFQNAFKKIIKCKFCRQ
Test: 5-HT1A activity assay via microplate reader (BODIPY-GTPγS unquenching) in pGUPs
Type: biochemical
Conditions: for Rate (protein functional rate): agonist 8-OH-DPAT, 37° C., 12 hours
Protocol: Fluorescence unquenching of BODIPY-GTPγS due to G protein binding was monitored every 5 minutes. Tracked fluorescence over time was first calculated as percent intensity increase to account for variation in sample size. Curves represent six independent replicates of the same experimental protocol and each time point is an average of the intensity increase. Curves were then normalized for ease in viewing the differences in protein functional rate.
25 mm no. 1 coverslips were cleaned via sonication in MeOH for 30 minutes at 35° C. Coverslips were dried and were further plasma treated in a PDC-32G benchtop plasma cleaner (Harrick Plasma, USA) for 15 minutes. Coverslips were held in Sykes-Moore chambers for vesicle formation. Protein-incorporated polymeric giant unilamellar protein-vesicles (pGUPs) were formed using methods similar to those previously published for lipid vesicles. Briefly, a 1:1 v/v mixture of membrane fragment suspension and agarose (3% w/v) at 45° C. was drop casted onto coverslips for thin film formation. The hydrogel film was allowed to gel and a film of polymer solution (5 mg/ml in CHCl3) was subsequently made. Solvent was evaporated using a stream of N2 gas. […] Vesicles were harvested from the coverslip and diluted in 3× of an isoosmotic glucose solution (200 mM glucose in PBS, pH 7.4). (p)GUPs were allowed to sediment in glucose for 30 minutes at room temperature.
Prepared and settled pGUPs were transferred to a flat bottom 96-well plate. Agonist 8-OH-DPAT was added to each well to a final concentration of 150 nM immediately prior to reading fluorescence. Control pGUPs were run without the addition of the agonist. Rehydration buffer with and without agonist and protein were read as positive and negative controls. Samples were read at physiological temperature (37° C.) every 5 minutes for twelve hours to ensure complete activity assessment. Fluorescence reading of BODIPY-GTPγS unquenching was done on a Biotek Synergy H4 Microplate Reader equipped with a xenon flash lamp. Excitation was set to 485/20 nm and emission at 528/20 nm at a read height of 7 mm.
Fluorescence microtiter results were collect and analyzed using JMP. Six separate observations were fitted and averaged to obtain a single curve with standard error mean values. Rates were fitted to the JMP Mechanistic Growth curve using a single exponential. Statistical analysis using a Tukey-Kramer pairwise comparison of means were done using JMP with a 95% confidence interval (α=0.05).

Rate (protein functional rate) (14 μM antagonist in pGUPs)	Effect on protein functional rate (antagonist in pGUPs)	Rate (protein functional rate) (14 pM antagonist in pGUPs)	Rate (protein functional rate) (14 nM antagonist in pGUPs)	Compound
0.057 min⁻¹	reduce the protein functional rate	–	–	COc1ccccc1N1CCN(CCCCN2C(=O)c3ccccc3C2=O)CC1 [NAN-190]
0.077 min⁻¹	–	0.102 min⁻¹	0.096 min⁻¹	O=C(CCCN1CCC2(CC1)C(=O)NCN2c1ccccc1)c1ccc(F)cc1 [Spiperone, spiperone]
